Data published in patent US12486298B2, “Fucosyltransferase specific inhibition using fucose mimetics” (THE FLORIDA INTERNATIONAL UNIVERSITY BOARD OF TRUSTEES, priority 2020, dated 2025).

Tests used:
[1] = target: T1, fucosyltransferase VI (FTVI) (Homo sapiens, UniProt P51993); experiment: FTVI exofucosylation of mesenchymal stem cells (MSC), sLe^x and Le^x by flow cytometry; format: cell-based; conditions: MSCs; 1.0 mM GDP-Fuc with 1.0 mM or 2.0 mM mimetic 1
T1 construct: purchased R&D systems
T1 sequence (P51993 35-359 limits assumed): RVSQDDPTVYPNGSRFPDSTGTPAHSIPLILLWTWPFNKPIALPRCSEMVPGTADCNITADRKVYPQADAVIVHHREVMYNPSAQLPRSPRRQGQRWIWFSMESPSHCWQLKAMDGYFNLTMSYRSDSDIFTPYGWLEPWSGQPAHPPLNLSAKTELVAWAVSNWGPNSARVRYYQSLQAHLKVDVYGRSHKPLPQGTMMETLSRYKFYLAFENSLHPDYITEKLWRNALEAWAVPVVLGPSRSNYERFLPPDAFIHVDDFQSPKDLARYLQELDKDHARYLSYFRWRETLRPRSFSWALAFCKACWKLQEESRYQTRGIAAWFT
Description: (§1) A Canto II (BD Biosciences) flow cytometer was utilized for flow cytometry and the data acquired was analyzed using FlowJo Software (Treestar). Cells were stained using antibodies specific to sLe^X (Alexa-Fluor 488 Mouse Anti-Human CD15s (BD Biosciences)), or Le^X (APC anti-human CD15 (SSEA-1) Antibody (BioLegend)).
(§2) Cells of the RPMI-8402 cell line and MSC cell line were treated with either 0.3 ug of fucosyltransferase VI (FTVI), 2.7 ug of fucosyltransferase VII (FTVII), 1.0 ug fucosyltransferase IX (FTIX) or buffer-only at 37° C. for 60 minutes. All reactions contained at 1×10^6 cells/30 ul in HBSS with 10 mM Hepes, 0.1% Human Serum Albumin, and 1.0 mM GDP fucose (GDP-Fuc) (Carbosynth) and the appropriate fucosytransferase. Then, mimetic 1 was added to each of the treatment groups in molar equivalents with respect to GDP-Fuc with each of the fucosytransferases. […]
(§3) Mimetic 1 (FIG. 1) was tested as an inhibitor of FT-mediated exofucosylation on these cells and the extent of fucosylation was monitored using antibodies that detect the creation of the relevant fucosylated epitopes, i.e., sLe^x or Le^x. […]

[2] = target: T2, fucosyltransferase IX (FTIX) (Homo sapiens, UniProt Q9Y231); experiment: FTIX exofucosylation of RPMI-8402 cells, Le^x by flow cytometry; format: cell-based
T2 sequence (Q9Y231 1-359): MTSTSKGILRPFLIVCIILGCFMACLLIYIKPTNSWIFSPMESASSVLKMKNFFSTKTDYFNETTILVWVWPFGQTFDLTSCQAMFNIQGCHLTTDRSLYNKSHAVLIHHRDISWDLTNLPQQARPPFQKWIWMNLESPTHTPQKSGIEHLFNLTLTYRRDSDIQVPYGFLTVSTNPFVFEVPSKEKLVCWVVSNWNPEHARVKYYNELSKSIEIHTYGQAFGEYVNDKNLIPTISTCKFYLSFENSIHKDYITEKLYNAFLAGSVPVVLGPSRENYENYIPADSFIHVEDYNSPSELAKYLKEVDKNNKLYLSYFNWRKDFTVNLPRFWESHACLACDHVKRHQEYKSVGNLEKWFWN
Description: as §1, §2, §3

[3] = target: T3, human fucose-binding DC-SIGN lectin (Homo sapiens, UniProt Q9NNX6); experiment: Recognition by DC-SIGN lectin
T3 sequence (Q9NNX6 1-404): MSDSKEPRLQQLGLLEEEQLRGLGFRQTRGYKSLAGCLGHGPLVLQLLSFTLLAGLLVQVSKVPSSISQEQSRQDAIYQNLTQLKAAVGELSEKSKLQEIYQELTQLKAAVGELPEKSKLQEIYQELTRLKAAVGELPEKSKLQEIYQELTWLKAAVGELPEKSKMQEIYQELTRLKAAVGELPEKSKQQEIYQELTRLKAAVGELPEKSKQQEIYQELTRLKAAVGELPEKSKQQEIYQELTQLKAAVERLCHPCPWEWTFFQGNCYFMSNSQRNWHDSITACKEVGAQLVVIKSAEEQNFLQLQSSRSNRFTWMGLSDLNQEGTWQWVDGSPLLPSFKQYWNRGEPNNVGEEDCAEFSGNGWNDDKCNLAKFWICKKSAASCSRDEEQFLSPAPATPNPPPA

CC1OC2Oc3ccc(CC(=O)O)cc3SC2C(O)C1O (centres unmarked) [mimetic 1]
inhibition of FTVI production of Le^x [1]: clearly inhibited | inhibition of FTVI production of sLe^x [1]: markedly diminished | inhibition of FTIX-mediated exofucosylation (Le^x creation) ([2]; RPMI-8402 cells, 1.0 mM GDP-Fuc with 1.0 mM or 2.0 mM mimetic 1): did not inhibit FTIX-mediated exofucosylation | effect of pre-incubation on FTIX-mediated exofucosylation ([2]; pre-incubation with 2.0 mM mimetic 1 prior to addition of GDP-Fuc): no effect | recognition by DC-SIGN lectin [3]: not recognized
